Assay results: paper PMC12765074, “Mechanistic insights into enterocin C targeting the undecaprenyl phosphate recycling protein BacA” (The Journal of Biological Chemistry, 2025)
“Also recorded” adds a separate entry of the source.

Columns and labels:
[1] = system: E. faecalis (V583-derivative strain, WT); assay type: cell-based, Enterococcus faecalis; details: 6 μl droplets on a lawn of E. faecalis, BHI 0.75% agar, overnight; representative of three independent experiments
[2] = target: T1, BacAef (Enterococcus faecalis, UniProt A0ACD6TE02); assay type: biochemical
[3] = target: T1, BacAef; assay: UppS-coupled C55-PP phosphatase assay in liposomes, BacAef; assay type: biochemical; details: liposomes
Method: The reconstitution of BacA and PgpB in liposomes was achieved through adapted protocols previously described ([48]). Liposomes were prepared by rehydrating a lipid film of DOPC: DOPG: DOPE (3 mg: 0.75 mg: 1.25 mg) after 4 h of desiccation by adding 1 ml of buffer (20 mM HEPES, pH 7.5, 50 mM NaCl, 15% glycerol). […] The lipid suspension underwent 10 freeze-thaw cycles in liquid nitrogen and was extruded through a 100 nm polycarbonate membrane (Millipore). Protein reconstitution was performed by destabilizing the liposomes with 5.5 mM Triton X-100 for 15 min. The protein was added at a final concentration of 15 μg/ml and the mixture was incubated at 4 °C for 15 min.
The liposomes were used to measure the C55-PP phosphatase activity of BacA in a membrane environment as follows. For each kinetic assay, 5 μl of a reaction mixture containing 20 μM C15-PP, 20 μM [^14C]C5-PP, 180 μM C5-PP in 20 mM HEPES, pH 7.5, 50 mM NaCl, and 15% glycerol were mixed with 5 μl of protein-free liposomes (as a control) or BacA-containing liposomes. The mixture was then supplemented with UppS at a final concentration of 0.2 mg/ml to initiate the enzymatic synthesis of C55-PP. The EntC peptides were added at various concentrations from a water solution. […] Substrates and products were separated and quantified by thin-layer chromatography as previously described for C55-PP phosphatase assay in detergent.

[4] = target: T1, BacAef; assay: DSS crosslinking; assay type: binding; details: BacAef and peptide 17 μM each, DSS 100- or 1000-fold excess, 30 min, 4 °C
Method: Crosslinking experiments were performed using the amine-reactive, membrane-permeable, and non-cleavable crosslinker disuccinimidyl suberate (DSS) purchased from Sigma. EntC peptides and BacA protein were mixed at equimolar concentrations (17 μM) in buffer D in the presence of an excess of DSS crosslinker (1000-fold or 100-fold) in a final reaction volume of 20 μl. The reaction was incubated for 30 min at 4°C, and any unreacted DSS was quenched with 50 mM Tris-HCl. After separation on a 12% acrylamide gel, proteins were electrotransferred onto polyvinylidene difluoride (PVDF) membrane, and BacA was detected using peroxidase-coupled anti-His tag antibody (Penta-His HRP conjugate from Qiagen, RRID: AB_3699318) by chemiluminescence detection (Western Lightning Plus-ECL, PerkinElmer) using the ChemiDoc MP system (Bio-Rad).

[5] = target: T1, BacAef; assay: ITC, BacAef; assay type: binding; details: 20 °C; for -TΔS / ΔG / ΔH: into [BacAef] 33 μM
Method: (§1) ITC experiments were performed with an ITC200 isothermal titration calorimeter from MicroCal (Malvern Panalytical, Malvern, UK). The experiments were carried out at 20 °C. The protein concentration in the microcalorimeter cell (0.2 ml) was 33 μM. Nineteen 2-μl injections of peptides at 400 μM were performed at intervals of 240 s while stirring at 500 rpm. To limit buffer mismatching effect between the cell and the syringe, and the heat-of-dilution effect for having glycerol in the protein solution, the latter were extensively dialyzed, prior to the ITC measurement, in a buffer containing 20 mM Tris-HCl pH 7.4, 200 mM NaCl, 0.1% DDM, to remove glycerol. Then, the dialysis buffer was used to dilute the EntC peptides to further limit buffer mismatching. The experimental data were fitted to theoretical titration curves with the software supplied by MicroCal (ORIGIN). This software uses the relationship between the heat generated by each injection and ΔH (enthalpy change in kcal/mol), Ka (the association binding constant in M^−1), n (the number of binding sites), total protein concentration and free and total ligand concentrations.

[6] = target: BacAef/EntC1 (Enterococcus faecalis, UniProt A0ACD6TE02+Q9L9U6); assay: ITC, BacAef/EntC1 mixture; assay type: binding
Method: as §1

[7] = target: BacAef/LcnGα (Enterococcus faecalis, UniProt A0ACD6TE02); assay: ITC, BacAef/LcnGα mixture; assay type: binding; details: 20 °C
Method: as §1

[8] = target: T1, BacAef; assay type: binding
Method: Thermal stability of BacA protein in different mixtures of peptides was performed by DSC on a MicroCal model VP-DSC (Malvern Panalytical, Malvern, UK). BacA (33 μM) was mixed with different mixtures of peptides at twice the BacA concentration (i.e. 66 μM). Each measurement was preceded by a baseline scan with the standard buffer. Scans were performed at 1 K/min (60 °C/h) temperature ramp between 30 °C and 100 °C. The heat capacity of the buffer was subtracted from that of the protein sample before analysis. The thermodynamic parameters were determined by fitting the data to the following equation: ΔCp(T)=Kd(T)ΔHcalΔHvH/[1+Kd(T)]^2RT^2 where Kd is the equilibrium constant for a two-state process, ΔHvH the enthalpy calculated based on a two-state process and ΔHcal the measured enthalpy.

[9] = target: N-terminal His6-tagged BacA from E. faecalis (BacAef) (Enterococcus faecalis); assay: ITC; peptides (400 μM) in the syringe titrated into the protein, or the protein premixed with one peptide, (33 μM) in the cell; 20 °C; 20 mM Tris-HCl pH 7.4, 200 mM NaCl, 0.1% DDM; single binding site model
[10] = target: N-terminal His6-tagged BacA from E. faecalis (BacAef) (Enterococcus faecalis)
[11] = target: N-terminal His6-tagged BacA from E. faecalis (BacAef) (Enterococcus faecalis); remark: listed apart in the source
[12] = target: N-terminal His6-tagged BacA from E. faecalis (BacAef) (Enterococcus faecalis); assay: ITC; EntC1 (400 μM) in the syringe titrated into a mixture containing BacAef and EntC2 (33 μM) in the cell; 20 °C; 20 mM Tris-HCl pH 7.4, 200 mM NaCl, 0.1% DDM
[13] = target: N-terminal His6-tagged BacA from E. faecalis (BacAef) (Enterococcus faecalis); assay: cross-linking; DSS (100- or 1000-fold excess), peptides and BacA at equimolar 17 μM in buffer D (20 mM HEPES pH 7.5, 0.2 M NaCl, 10% glycerol, 0.1% DDM), 30 min at 4 °C, quenched with 50 mM Tris-HCl; SDS-PAGE and anti-His blot of BacA
[14] = target: BacAef + LcnGα mixture (Enterococcus faecalis | Lactococcus lactis); assay: ITC; peptides (400 μM) in the syringe titrated into the protein, or the protein premixed with one peptide, (33 μM) in the cell; 20 °C; 20 mM Tris-HCl pH 7.4, 200 mM NaCl, 0.1% DDM; single binding site model
[15] = target: N-terminal His6-tagged BacA from E. faecalis (BacAef) (Enterococcus faecalis); remark: listed apart in the source
[16] = system: L. lactis IL1403; assay: spot-on-lawn antibacterial assay, L. lactis; assay type: cell-based, Lactococcus lactis; details: 6 μl droplets, L. lactis IL1403, M17G agar, overnight
[17] = system: L. lactis strains; details: ref [6], [7], [8], cited from earlier work
[18] = target: Fluorescein-labelled EntC1 (Enterococcus faecalis C901); assay: flow-induced dispersion analysis (FIDA)
[19] = target: Fluorescein-labelled EntC1 (Enterococcus faecalis C901); assay: flow-induced dispersion analysis (FIDA); as the titration without EntC2, but in the presence of 200 nM EntC2 (twice the concentration of Fluo-EntC1); 25 °C; 20 mM Tris-HCl pH 7.4, 200 mM NaCl, 0.1% DDM; 1:1 binding model
[20] = ITC, peptides 400 μM into [BacAef] 33 μM, 20 mM Tris-HCl pH 7.4, 200 mM NaCl, 0.1% DDM, at least triplicate
[21] = ITC, 20 °C, into [BacAef/EntC1]

CC[C@H](C)[C@H](NC(=O)CNC(=O)[C@H](CCCCN)NC(=O)[C@H](C)NC(=O)[C@H](CC(C)C)NC(=O)CNC(=O)[C@H](C)NC(=O)[C@@H](NC(=O)[C@H](Cc1ccccc1)NC(=O)[C@H](CC(=O)O)NC(=O)[C@H](Cc1ccc(O)cc1)NC(=O)[C@H](C)NC(=O)[C@@H]1CCCN1C(=O)[C@H](CCC(N)=O)NC(=O)[C@H](CC(C)C)NC(=O)[C@H](Cc1c[nH]c2ccccc12)NC(=O)[C@@H]1CCCN1C(=O)[C@H](CC(C)C)NC(=O)[C@H](Cc1c[nH]c2ccccc12)NC(=O)[C@H](CCCCN)NC(=O)CNC(=O)[C@@H]1CCCN1C(=O)CN)C(C)C)C(=O)NCC(=O)N[C@@H](CCCCN)C(=O)N[C@@H](CCC(=O)O)C(=O)NCC(=O)N[C@@H](CC(N)=O)C(=O)N[C@@H](CCCCN)C(=O)N[C@@H](CC(N)=O)C(=O)N[C@@H](CCCCN)C(=O)N[C@@H](Cc1c[nH]c2ccccc12)C(=O)N[C@@H](CCCCN)C(=O)N[C@@H](CC(N)=O)C(=O)N[C@H](C(=O)O)C(C)C (single isomer, unassigned) [EntC2]
antibacterial activity (spot-on-lawn), E. faecalis [1]: neither peptide exhibited antibacterial activity when applied individually | inhibition of BacAef C55-PP phosphatase activity ([2]; DDM micelles, EntC2 up to 50 μM, pH 7.4, 37 °C, 10 min): no inhibition | effect on BacAef activity in liposomes [3]: no effect | crosslinked complex band with BacAef (SDS-PAGE, western blot) [4]: a very faint band | -TΔS ([5]; ITC): No binding | ΔG ([5]; ITC): No binding | ΔH ([5]; ITC): No binding | KD [5, 20]: No binding | binding to BacAef (ITC, words) ([5]; titration on BacAef alone): No binding | affinity of second binding event relative to EntC1 binding (fold) ([6]; EntC2 into BacAef/EntC1 versus EntC1 into BacAef): about 10 -fold | n ([6]; ITC, 20 °C, 400 μM into [BacAef/EntC1] 33 μM): 0.95 ± 0.01 | -TΔS [6, 21]: 6.5 kcal/mol | ΔG [6, 21]: -10.3 kcal/mol | ΔH [6, 21]: -16.8 kcal/mol | n ([7]; 400 μM into [BacAef/LcnGα] 33 μM): 0.77 ± 0.01 | -TΔS ([7]; into [BacAef/LcnGα]): 10.5 kcal/mol | ΔG ([7]; into [BacAef/LcnGα]): -9.0 kcal/mol | ΔH ([7]; into [BacAef/LcnGα]): -19.5 kcal/mol | DSC signal change of BacAef ([8]; EntC2 at twice the concentration of BacAef): did not change the DSC signal

[Ca+2].[Cl-].[Cl-] [CaCl2]
restoration of BacAef activity following EDTA treatment ([2]; after 500 μM EDTA, pH 7.5, 0.1% DDM): restored

O=C(O)CN(CCN(CC(=O)O)CC(=O)O)CC(=O)O [EDTA]
effect on BacAef C55-PP phosphatase activity [2]: inhibited its activity

EntC1-LcnGβ chimera bacteriocin (EntC1 and LcnGβ together) (complex)
Kd [9]: 307 nM | dH [9]: -19.4 kcal/mol | stoichiometry N [9]: 0.79

Enterocin C peptide EntC1 (mature, synthetic)
IC50 of inhibition of the C55-PP phosphatase activity of BacAef in DDM micelles [10]: 800 nM | DSC: Tm of BacAef (33 μM) with the peptide at 66 μM (66.3°C without peptide) [11]: 73 °C | DSC: enthalpy of denaturation ΔH of BacAef (33 μM) with the peptide at 66 μM (26.7 kcal/mol without peptide) [11]: 45.3 kcal/mol | Kd [12]: 480 nM | dH [12]: -27.6 kcal/mol | stoichiometry N [12]: 0.69 | Kd [9]: 306 nM | dH [9]: -5.4 kcal/mol | stoichiometry N [9]: 0.6 | stoichiometry N [13]: 1

Enterocin C peptide EntC2 (mature, synthetic)
dH [14]: -19.5 kcal/mol | stoichiometry N [14]: 0.77

Lactococcin G (LcnGα and LcnGβ together) (complex)
IC50 of inhibition of the C55-PP phosphatase activity of BacAef in vitro [15]: 800 nM | Kd [9]: 165 nM | dH [9]: -20.4 kcal/mol | stoichiometry N [9]: 0.62

Lactococcin G [LcnG, reference compound]
antibacterial activity (spot-on-lawn), E. faecalis [1]: E. faecalis was only susceptible to EntC; also recorded: inactive against E. faecalis | antibacterial activity (spot-on-lawn), L. lactis [16]: sensitivity to both bacteriocins | IC50 ([2]; DDM micelles, 20 mM Tris-HCl pH 7.4, 400 μM CaCl2, 150 mM NaCl, 0.1% DDM, 50 μM [14C]C55-PP, 10 min, 37 °C, TLC, EntC vs EntC1 p-value = 0.0007, read-out: IC50, BacAef C55-PP phosphatase activity): 800 nM | -TΔS ([5]; ITC): 11.3 kcal/mol | ΔG ([5]; ITC): -9.1 kcal/mol | ΔH ([5]; ITC): -20.4 kcal/mol | Kd [5, 20]: 165 ± 19 nM | n ([5]; ITC, peptides 400 μM into [BacAef] 33 μM, pH 7.4, 0.1% DDM, at least triplicate): 0.62 ± 0.01 | difference in Tm between EntC and LcnG complexes with BacAef ([8]; LcnG versus EntC): 6.8 °C | difference in ΔH between EntC and LcnG complexes with BacAef ([8]; LcnG versus EntC): 7.8 kcal/mol | membrane permeabilization ([17]; 1:1 ratio of LcnGα and LcnGβ): membrane permeabilization to monovalent cations | antibacterial activity against L. lactis strains [17]: antibacterial activity at nanomolar concentrations

N-terminal His6-tagged BacA from E. faecalis (BacAef) (enzyme)
Kd [18]: 96 nM | Kd [19]: 86 nM | stoichiometry N [13]: 2
